The text below walks through data of patent US20120083522A1, “MODULATION OF INFLAMMATORY RESPONSES BY FACTOR XI” (Isis Pharmaceuitcals, inc., priority 2009, published 2012).

In the oligonucleotide strings, read from the 5' end, every base follows the letter of its sugar. An asterisk marks phosphorothioate; unmarked linkages are phosphodiester. Other units and linkages are bracketed, terminal groups are in braces. A string of capitals states the bases alone. e = 2'-O-(2-methoxyethyl) (MOE); [5mC] = 5-methylcytosine; d = 2'-deoxy (DNA)

The test system of the first data set is human Factor XI mRNA. In words: Antisense inhibition in HepG2 cells by microwalk gapmers, 75 nM, lipofectin (Example 3). Type of data set: cell-based. Conditions: HepG2 cells, 75 nM, oligonucleotides targeted to nucleobases 1062 to 1091 of SEQ ID NO: 1. The method in brief: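 HepG2 cells (10,000 per well) were transfected with 75 nM gapmer using lipofectin and treated for about 24 h. Factor XI mRNA was quantified by real-time PCR, normalized to RiboGreen total RNA and expressed as percent inhibition versus untreated controls.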
Regarding “416990 (antisense eT*eG*dA*dG*dA*dT*dT*d[5mC]*dT*dT*dT*dG*dG*dG*d[5mC]*e[5mC]*eA*eT*eT*e[5mC]) [compound 416990]”, the “% inhibition of human Factor XI mRNA levels” value (“% inhibition” below) came to 76%.
Same read-out and setting: as for “416994 (antisense eT*e[5mC]*dT*dT*dT*dG*dA*dG*dA*dT*dT*d[5mC]*dT*dT*dT*eG*eG*eG*e[5mC]*e[5mC]) [compound 416994]”, the figure is 83%.

The data set is the same for the next values; noted with them: HepG2 cells, 75 nM, oligonucleotides targeted to nucleobases 1275 to 1318 of SEQ ID NO: 1.
Take “416941 (antisense eG*eG*e[5mC]*dA*dG*d[5mC]*dG*dG*dA*d[5mC]*dG*dG*d[5mC]*dA*dT*dT*dG*eG*eT*eG) [compound 416941]”: the “% inhibition” value was 95%.
For the substance “416926 (antisense eT*eG*eG*dT*dG*d[5mC]*dA*d[5mC]*dA*dG*dT*dT*dT*d[5mC]*dT*dG*dG*e[5mC]*eA*eG) [compound 416926]”, the “% inhibition” value was 93%.
Still for that read-out and setting: in the case of “416998 (antisense e[5mC]*eA*d[5mC]*dA*dG*dT*dT*dT*d[5mC]*dT*dG*dG*d[5mC]*dA*dG*eG*e[5mC]*e[5mC]*eT*e[5mC]) [compound 416998]” it was 88%; in that of “417007 (antisense eG*e[5mC]*dA*dT*dT*dG*dG*dT*dG*d[5mC]*dA*d[5mC]*dA*dG*dT*eT*eT*e[5mC]*eT*eG) [compound 417007]”, 82%; in that of “417011 (antisense eG*eA*d[5mC]*dG*dG*d[5mC]*dA*dT*dT*dG*dG*dT*dG*d[5mC]*dA*e[5mC]*eA*eG*eT*eT) [compound 417011]”, 86%.
On to “416936 (antisense e[5mC]*eG*eG*dA*d[5mC]*dG*dG*d[5mC]*dA*dT*dT*dG*dG*dT*dG*d[5mC]*dA*e[5mC]*eA*eG) [compound 416936]”, for which the “% inhibition” value came out at 89%.
On the same count and under the same terms, as for “417021 (antisense eA*e[5mC]*dT*dG*dG*d[5mC]*dA*dG*d[5mC]*dG*dG*dA*d[5mC]*dG*dG*e[5mC]*eA*eT*eT*eG) [compound 417021]”, the figure is 74%; as for “416942 (antisense eT*eG*eG*d[5mC]*dA*dG*d[5mC]*dG*dG*dA*d[5mC]*dG*dG*d[5mC]*dA*dT*dT*eG*eG*eT) [compound 416942]”, 85%.

The test system of the next data set is human Factor XI mRNA. The data set can be described thus: Dose-dependent inhibition in HepG2 cells, lipofectin (Example 4). In kind it is cell-based. The conditions noted are these: 9.375 nM, 16 hours. On the procedure: (§1) Cells were plated at a density of 10,000 cells per well and transfected using lipofectin reagent with 9.375 nM, 18.75 nM, 37.5 nM and 75 nM concentrations of antisense oligonucleotide, as specified in Table 9. After a treatment period of approximately 16 hours, RNA was isolated from the cells and Factor XI mRNA levels were measured by quantitative real-time PCR. Human Factor XI primer probe set RTS 2966 was used to measure mRNA levels. Factor XI mRNA levels were adjusted according to total RNA content, as measured by RIBOGREEN®. Results are presented as percent inhibition of Factor XI, relative to untreated control cells.
For the substance “416941 (antisense eG*eG*e[5mC]*dA*dG*d[5mC]*dG*dG*dA*d[5mC]*dG*dG*d[5mC]*dA*dT*dT*dG*eG*eT*eG) [compound 416941]”, the “percent inhibition of Factor XI mRNA, relative to untreated control cells” value came out at 33%.
The same measure, in the same setting: in the case of “416926 (antisense eT*eG*eG*dT*dG*d[5mC]*dA*d[5mC]*dA*dG*dT*dT*dT*d[5mC]*dT*dG*dG*e[5mC]*eA*eG) [compound 416926]” it was 31%.

Still in this data set, the particulars now being: 18.75 nM, 16 hours.
For the substance “416941 (antisense eG*eG*e[5mC]*dA*dG*d[5mC]*dG*dG*dA*d[5mC]*dG*dG*d[5mC]*dA*dT*dT*dG*eG*eT*eG) [compound 416941]”, the “percent inhibition of Factor XI mRNA, relative to untreated control cells” value was 54%.
On the same count and under the same terms, as for “416926 (antisense eT*eG*eG*dT*dG*d[5mC]*dA*d[5mC]*dA*dG*dT*dT*dT*d[5mC]*dT*dG*dG*e[5mC]*eA*eG) [compound 416926]”, the figure is 43%.

The data set is the same for the next values; noted with them: 37.5 nM, 16 hours.
In the case of “416941 (antisense eG*eG*e[5mC]*dA*dG*d[5mC]*dG*dG*dA*d[5mC]*dG*dG*d[5mC]*dA*dT*dT*dG*eG*eT*eG) [compound 416941]”, the “percent inhibition of Factor XI mRNA, relative to untreated control cells” value is recorded as 63%.
Same read-out and setting: in the case of “416926 (antisense eT*eG*eG*dT*dG*d[5mC]*dA*d[5mC]*dA*dG*dT*dT*dT*d[5mC]*dT*dG*dG*e[5mC]*eA*eG) [compound 416926]” it was 63%.

Still in this data set, the particulars now being: 75 nM, 16 hours.
“416941 (antisense eG*eG*e[5mC]*dA*dG*d[5mC]*dG*dG*dA*d[5mC]*dG*dG*d[5mC]*dA*dT*dT*dG*eG*eT*eG) [compound 416941]”: the “percent inhibition of Factor XI mRNA, relative to untreated control cells” value came out at 78%.
The same measure, in the same setting: as for “416926 (antisense eT*eG*eG*dT*dG*d[5mC]*dA*d[5mC]*dA*dG*dT*dT*dT*d[5mC]*dT*dG*dG*e[5mC]*eA*eG) [compound 416926]”, the figure is 82%.

For the next data set, the system named is human Factor XI mRNA. In words: Dose-dependent inhibition in HepG2 cells, electroporation (Example 4). In kind it is cell-based. The conditions noted are these: 0.7 μM, 16 hours. On the procedure:
as §1, with “The gapmers were also transfected via electroporation and their dose dependent inhibition of human Factor XI mRNA was measured. Cells” for “Cells”, “20,000” for “10,000”, “via electroporation” for “using lipofectin reagent”, “0.7 μM, 2.2 μM, 6.7 μM,” for “9.375 nM, 18.75 nM, 37.5 nM”, “20 μM” for “75 nM”, “10.” for “9.”
For the substance “416941 (antisense eG*eG*e[5mC]*dA*dG*d[5mC]*dG*dG*dA*d[5mC]*dG*dG*d[5mC]*dA*dT*dT*dG*eG*eT*eG) [compound 416941]”, the “percent inhibition of Factor XI mRNA, relative to untreated control cells” value was 16%.
On the same count and under the same terms, in the case of “416926 (antisense eT*eG*eG*dT*dG*d[5mC]*dA*d[5mC]*dA*dG*dT*dT*dT*d[5mC]*dT*dG*dG*e[5mC]*eA*eG) [compound 416926]” it was 47%.

The same data set, now with this note: 2.2 μM, 16 hours.
As to “416941 (antisense eG*eG*e[5mC]*dA*dG*d[5mC]*dG*dG*dA*d[5mC]*dG*dG*d[5mC]*dA*dT*dT*dG*eG*eT*eG) [compound 416941]”, the “percent inhibition of Factor XI mRNA, relative to untreated control cells” value was determined as 38%.
On the same count and under the same terms, in the case of “416926 (antisense eT*eG*eG*dT*dG*d[5mC]*dA*d[5mC]*dA*dG*dT*dT*dT*d[5mC]*dT*dG*dG*e[5mC]*eA*eG) [compound 416926]” it was 71%.

Still in this data set, the particulars now being: 6.7 μM, 16 hours.
On to “416941 (antisense eG*eG*e[5mC]*dA*dG*d[5mC]*dG*dG*dA*d[5mC]*dG*dG*d[5mC]*dA*dT*dT*dG*eG*eT*eG) [compound 416941]”, for which the “percent inhibition of Factor XI mRNA, relative to untreated control cells” value is given as 79%.
The same measure, in the same setting: in the case of “416926 (antisense eT*eG*eG*dT*dG*d[5mC]*dA*d[5mC]*dA*dG*dT*dT*dT*d[5mC]*dT*dG*dG*e[5mC]*eA*eG) [compound 416926]” it was 91%.

Still in this data set, the particulars now being: 20 μM, 16 hours.
On to “416941 (antisense eG*eG*e[5mC]*dA*dG*d[5mC]*dG*dG*dA*d[5mC]*dG*dG*d[5mC]*dA*dT*dT*dG*eG*eT*eG) [compound 416941]”, for which the “percent inhibition of Factor XI mRNA, relative to untreated control cells” value is on record as 89%.
In the case of “416926 (antisense eT*eG*eG*dT*dG*d[5mC]*dA*d[5mC]*dA*dG*dT*dT*dT*d[5mC]*dT*dG*dG*e[5mC]*eA*eG) [compound 416926]”, the “percent inhibition of Factor XI mRNA, relative to untreated control cells” value is 94%.
